Source: US12583835B2, “Crystal form of nitroxoline prodrug, pharmaceutical composition containing same, and preparation method therefor and application thereof” (Jiangsu Yahong Meditech Co., Ltd., priority 2020, dated 2026)

How the values were obtained:
[1] = Stability in liver microsome (human); assay type: in vitro ADME; settings: 2 μM, 30 minutes, 37° C.
Procedure: (§1) Experimental instruments: thermostatic oscillator (SHA-B, Guohua Instrument); centrifuge (5810R, Eppendorf), mass spectrometer (API4000, Applied), liquid chromatography (LC-30AD, Shimadzu); sampler (CTC Analytics AG System, CTC).
(§2) Experimental procedures: to 100 mM phosphate buffer was added 25 μg/mL alamethicin (Aldrich Reagents), 5 mM magnesium chloride and 0.5 mg/mL microsomes (XENOTECH) to prepare a reaction solution without coenzymes. To a portion of the reaction solution was added 1 mM reduced nicotinamide adenine dinucleotide phosphate (Aldrich Reagents) and 5 mM uridine diphosphate glucuronic acid (Aldrich Reagents) to prepare a reaction solution with coenzymes. […] Immediately after mixing well, 50 μL of the solution was collected as the 0-minute sample, and another 50 μL was collected after 30 minutes of incubation of the remaining sample at 37° C. The proteins in all collected samples were immediately precipitated, and the supernatants were collected by centrifugation, in which the compound concentrations were determined by LC/MS/MS.

[2] = Pharmacokinetic assay in dogs; assay type: in vivo; settings: beagles
Source text: Nitroxoline is mainly metabolized by Phase II metabolism in the liver with a high metabolism rate, thus the in vivo half-life is short. In this experiment, after a single intravenous or oral administration of nitroxoline and the compound obtained in Example 1 to dogs, the changes in the concentration of the compound nitroxoline in dog plasma were studied, so as to evaluate the in vivo pharmacokinetic behaviors of nitroxoline and the compound obtained in Example 1.
Male beagles (Beijing Marshall Bioresources Co., Ltd., laboratory animal production license No.: SCXK (Beijing) 2016-0001, laboratory animal certificate No.: 11400600001728), 3 beagles per group, weight 10-13 kg, 20-22 months old, were fasted overnight before drug administration with free access to water, and food was given 4 hours after drug administration. The compound to be tested was put into an EP tube, dimethyl sulfoxide, Solutol® and sterile water for injection (the volume ratio of the three was 1:2:17, v:v:v) were added, and the EP tube was sonicated for 20 minutes to fully dissolve the compound (formulation concentration of the compound: 0.005 mmol/mL). The intravenous dose was 0.01 mmol/kg, and the oral dose was 0.1 mmol/kg. 0.3 ml of whole blood was collected from the jugular vein before drug administration (0 hour) and 0.0833, 0.25, 0.5, 0.75, 1, 2, 4, 6, 8, 10 and 12 hours after drug administration (the sampling points were adjusted according to the situation) and placed in a centrifuge tube containing EDTA-K2 (Aldrich Reagents) for anticoagulation, which was placed in crushed ice after sample collection. The tube was centrifuged at 1530 g for 10 minutes within 0.5 hours of sample collection. All clean plasma were isolated and placed in another clean centrifuge tube, which was placed in a −20° C. refrigerator until testing.
A series of solutions for standard curve was prepared. To 10 μL of solutions for standard curve and samples was added 1000 μL of internal standard working solution (a solution of 5 ng/mL verapamil (Aldrich Reagents), 50 ng/mL glibenclamide (Aldrich Reagents) and 50 ng/mL diclofenac (Aldrich Reagents) in acetonitrile) was added, and the resulting solution was vortexed for 5 minutes. After centrifuging at 4° C., 3700 rpm for 10 minutes, 60 μL of the supernatant was collected into a sample tube and mixed well with 120 μL of water, and 10 μL of the mixed solution was injected into the LC/MS system for determination. Pharmacokinetic parameters were calculated using WinNonlin V6.2 non-compartmental model.

[3] = Stability in liver microsome (rat); assay type: in vitro ADME; settings: 2 μM, 30 minutes, 37° C.
Procedure: as §1, §2

[4] = Stability in liver microsome (mouse); assay type: in vitro ADME; settings: 2 μM, 30 minutes, 37° C.
Procedure: as §1, §2

[5] = Stability in liver microsome (dog); assay type: in vitro ADME; settings: 2 μM, 30 minutes, 37° C.
Procedure: as §1, §2

Structure (SMILES): CC(C)C(=O)N1CCC[C@H]1C(=O)OCOc1ccc([N+](=O)[O-])c2cccnc12 [Compound obtained in Example 1, ((5-nitroquinolin-8-yl)oxy)methyl-isobutyryl-L-prolinate]
- Percentage (%) of remaining compound in human liver microsomes ([1]; With coenzyme): 26.92%
- Percentage (%) of remaining compound in human liver microsomes ([1]; Without coenzyme): 59.42%
- AUC0-inf of nitroxoline in plasma ([2]; intravenous 0.01 mmol/kg): 1290 ng*hmL^−1
- AUC0-inf of nitroxoline in plasma ([2]; oral 0.1 mmol/kg): 8750 ng*hmL^−1
- Percentage (%) of remaining compound in rat liver microsomes ([3]; With coenzyme): 3.64%
- Percentage (%) of remaining compound in rat liver microsomes ([3]; Without coenzyme): 46.82%
- Percentage (%) of remaining compound in mouse liver microsomes ([4]; With coenzyme): 0.09%
- Percentage (%) of remaining compound in mouse liver microsomes ([4]; Without coenzyme): 49.07%
- Percentage (%) of remaining compound in dog liver microsomes ([5]; With coenzyme): 33.13%
- Percentage (%) of remaining compound in dog liver microsomes ([5]; Without coenzyme): 53.50%
